Assay [1] relates to HT-1376. Kind of assay: MTT antiproliferative assay. In kind it is cell-based, human. The conditions noted are these: for IC50: Homo sapiens, HT-1376, MTT, 72 h, read-out: IC50 ± SD, HT-1376; for SI (selectivity index), HT-1376: IC50 UROtsa / IC50 HT-1376. The method, then: The IC50 values indicate that 5c is effective across multiple bladder cancer cell lines (Figure 2 and Table 2).
The antiproliferative activities of various compounds examined in this report were measured using the MTT (3-[4,5-dimethylthiazol-2-yl]-2,5-diphenyl-tetrazolium bromide) reduction assay, as previously described. Briefly, cells were seeded at 2 × 10^3 cells per well in a 96-well plate and cultured overnight. The cells were then treated with different doses (5 µM, 10 µM, 15 µM, 20 µM, 25 µM, 30 µM, 35 µM, 40 µM in DMSO) for 72 h. Viability of the treated cultures was estimated by conversion of MTT to the insoluble formazan after 3h incubation at 37 °C and 5% CO2. The purple-colored formazan crystals were dissolved in DMSO, and absorbance was recorded at wavelengths 570/640 nm using the Bio-Rad Benchmark Plus Microplate Reader. The percent of viable cells was calculated ODtreated cells/ODcontrol cell wells × 100.

Assay [2] concerns T24 cells. The experiment in a line: ROS estimation with H2DCFDA. The class given is cell-based, human. The conditions noted are these: T24, 24 h, all tested concentrations (5–40 µM). The method, then: (§1) Since 5c was not toxic to non-tumorigenic cells, such as MCF12A and UROtsa, these cells were excluded from experiments aimed at identifying the broad mechanism of cytotoxicity. A common mechanism by which these antioxidants induce cytotoxicity in tumor cells is by generating Reactive Oxygen Species (ROS) selectively in fast-growing tumor cells. The levels of ROS generated by 5c exposed cells were evaluated with the oxidation of 2′,7′-dichlorodihydrofluorescein diacetate (H2DCFDA). It is a cell-permeant fluorescent probe used for detecting ROS production (Thermo Scientific Inc., Waltham, MA, USA). […] Figure 3 illustrates the quantification of intracellular ROS levels in four bladder cancer cell lines, 5637, T24, HT-1376, and MB49, following treatment with UA and its biotin-conjugated derivative, compound 5c.
(§2) The relative levels of intracellular ROS produced in untreated and drug-treated cells were analyzed by fluorimetry using the fluorescent probe H2DCFDA (Sigma-Aldrich, #D6883, St. Louis, MI, USA), as described previously. Briefly, cells cultured in a 96-well plate at 1 × 10^4 cells per well were treated with drugs of interest for 24 h rinsed with sterile PBS to remove excess drugs, and incubated with 10 μM DCFDA for 30 min at 37 °C and 5% CO2. Following three rinses with PBS, the fluorescence intensity was recorded at excitation: 485/20, emission: 528/20 using a BioTek Synergy HTX Multimode fluorescence plate reader (Agilent Technologies, Inc., Santa Clara, CA, USA), and the data were represented as percentage change compared to the respective untreated control.
(§3) Figure 3 Estimation of oxidative stress: Treatment with UA or 5c increased ROS levels in various bladder cancer cells. ROS levels were estimated at 24 h using DCFDA. The relative fluorescence unit (RFU) was normalized to that observed in untreated cells and expressed as a percent increase. Data are Means ± SD, (n = 4). Relative significance, expressed as p-value are calculated based on one-way ANOVA.

For assay [3], the system named is MB49 cells. Kind of assay: ROS estimation with H2DCFDA. The class given is cell-based, murine. The conditions noted are these: MB49, 24 h; for ROS levels: 5–40 µM. The method, then:
as §1, §2, §3

Assay [4] concerns MB49. Kind of assay: Cell cycle phase fractionation by flow cytometry (PI). In kind it is cell-based, murine. The conditions noted are these: MB49, 24 h, mean ± SD n=3. From the text: Cells treated with some antiproliferative drugs are blocked from orderly progression from one stage of their mitotic cycle to the next due to inhibition of a specific stage of the cell cycle. Analysis by flow cytometry (FC) of DNA content in the nuclei of drug-treated cells is a well-established technique for evaluating the fractions of cells in each stage of the cell cycle based on their DNA content. In this study, we employed FC to examine whether treatment with UA or 5c affects the orderly cell cycle progression from G0/G1, S, and G2M before entering Mitosis (M). Figure 6 represents the effect of UA and 5c on cell cycle progression in four bladder cancer cell lines, 5637, HT-1376, T-24, and MB-49, after a […] treatment at a concentration of 12 µM. Following the treatment, nuclei suspensions from treated cells were prepared by direct cell lysis in a hypotonic solution, with simultaneous staining with PI (100 µg/mL). The resulting nuclei suspension and the samples were run on the flow cytometer and analyzed for DNA content.
Cells cultured in 35 mm diameter, 6-well cluster plates (Corning Inc., Corning, NY, USA) overnight at a density of 0.3 × 10^6 cells/well, and treated with various compounds at selected concentrations for 24 h. After completion of treatment, cells were washed twice with PBS, followed by the addition of Propidium Iodide (PI) containing […] solution [(0.1 mg/mL PI), 50mg Na-citrate, 15 µL of IGEPAL CA-630], 1 mL in each well, and incubated for 30–45 min at 37 °C and 5% CO2. After that data acquired using the NovoCyte Quanteon Flow Cytometer was analyzed using NovoExpress software (version 1.6.1).
On the technique in general: Flow cytometry measures light scatter and fluorescence of single cells or particles in a stream.

In the case of `CC1CCC2(C(=O)OCCCCOC(=O)CCCCC3SCC4NC(=O)NC43)CCC3(C)C(=CCC4C5(C)CCC(O)C(C)(C)C5CCC43C)C2C1C` [Compound 5c, 4-((5-((3aS,4S,6aR)-2-Oxohexahydro-1H-thieno [3,4-d]imidazol-4-yl)pentanoyl)oxy) butyl 3-hydroxy-urs-12-en-28-oate], in assay [1], the IC50 (as a rule, the point on the concentration scale where inhibition reaches its midpoint) was 12.7 ± 0.4 µM and the “SI (selectivity index), HT-1376” value is 4.96. For the same molecule, the “ROS levels” value in assay [2] is given as “comparable increases in ROS levels”. Moreover, the “ROS levels” value in assay [3] is given as “concentration-dependent increase in ROS levels”. Moreover, the “ROS response relative to UA” value in assay [3] (30–40 µM) was “more robust ROS response”. Moreover, in assay [4], the “Cell-Cycle Phase-Fractions G1” value is 53.52 ± 1.25 % of total, the “Cell-Cycle Phase-Fractions G2/M” value is 18.43 ± 0.69 % of total and the “Cell-Cycle Phase-Fractions S” value was 28.05 ± 0.56 % of total.

Consider `C[C@H]1[C@H](C)CC[C@]2(C(=O)O)CC[C@]3(C)C(=CC[C@@H]4[C@@]5(C)CC[C@H](O)C(C)(C)[C@@H]5CC[C@]43C)[C@H]12` [UA, Ursolic acid], for which, in assay [1], the IC50 came out at 21.9 ± 1.14 µM and the “SI (selectivity index), HT-1376” value amounted to 3.06. Also, in assay [2], the “ROS levels” value is listed as “comparable increases in ROS levels”. Further, the “ROS levels” value in assay [3] was “concentration-dependent increase in ROS levels”. In addition, in assay [4], the “Cell-Cycle Phase-Fractions G1” value was 59.75 ± 0.77 % of total, the “Cell-Cycle Phase-Fractions G2/M” value was 19.12 ± 1.09 % of total and the “Cell-Cycle Phase-Fractions S” value is reported as 21.13 ± 1.49 % of total.
